The values that follow come from paper PMC6646438 (Natural Products and Bioprospecting, 2019).

Structures are written as SMILES.

One assay addresses T1, melatonin MT1 receptor (Homo sapiens, UniProt P48039).
T1 construct: gene MTNR1A
In words: Fluo-8 calcium flux agonist assay in HEK293 cells stably expressing human MT1, single concentration […]. Type of assay: cell-based. The following applies: read-out: % agonistic rate at 0.5 mM. For orientation: A change in cytosolic calcium serves as a functional read-out for many receptors and channels.

Another assay has as its target T2, melatonin MT2 receptor (Homo sapiens, UniProt P49286).
T2 construct: gene MTNR1B
T2 sequence (P49286 1-362): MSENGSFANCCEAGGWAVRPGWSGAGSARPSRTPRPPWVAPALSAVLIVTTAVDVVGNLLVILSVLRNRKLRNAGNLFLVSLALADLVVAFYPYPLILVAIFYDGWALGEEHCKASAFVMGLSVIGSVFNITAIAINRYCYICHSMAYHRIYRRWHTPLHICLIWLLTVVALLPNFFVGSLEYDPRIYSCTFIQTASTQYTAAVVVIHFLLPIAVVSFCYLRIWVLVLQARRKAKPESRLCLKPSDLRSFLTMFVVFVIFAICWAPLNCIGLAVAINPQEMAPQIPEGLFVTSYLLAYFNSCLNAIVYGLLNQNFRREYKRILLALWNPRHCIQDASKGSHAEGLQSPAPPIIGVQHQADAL
In words: Fluo-8 calcium flux agonist assay in HEK293 cells stably expressing human MT2, dose-response. Type of assay: cell-based.

T1 sequence (P48039 whole entry): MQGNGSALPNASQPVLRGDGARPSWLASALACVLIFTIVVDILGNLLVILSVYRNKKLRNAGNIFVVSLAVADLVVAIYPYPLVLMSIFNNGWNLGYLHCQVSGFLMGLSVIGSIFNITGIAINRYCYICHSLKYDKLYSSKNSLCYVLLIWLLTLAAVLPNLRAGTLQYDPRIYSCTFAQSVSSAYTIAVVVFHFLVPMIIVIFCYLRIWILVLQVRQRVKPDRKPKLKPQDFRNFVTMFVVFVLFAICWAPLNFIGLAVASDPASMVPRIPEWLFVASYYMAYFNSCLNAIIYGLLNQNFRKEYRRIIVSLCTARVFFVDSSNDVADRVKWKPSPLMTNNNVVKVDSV

The term EC50 denotes the midpoint of the concentration-response curve. On to `Oc1ccc(Cc2ccc(O)c(Cc3cc(Cc4ccc(O)cc4)c(O)c(Cc4ccc(O)cc4)c3)c2)cc1` [compound 1, gastropolybenzylol G], for which the activation at 500 µM at melatonin MT1 receptor is 55.9 ± 4.84%. For the same molecule, the EC50 at melatonin MT2 receptor stood at 76.2 µM.
